Measurements as given in US12544372B2, “Methods of treating rheumatoid arthritis, chronic spontaneous urticaria, and systemic lupus erythematosis using an inhibitor of Bruton's tyrosine kinase” (Genentech, Inc., priority 2019, dated 2026).
Marks after values point to notes of the source that are not given here.

Legend:
Assay type in all cases: in vivo, human
[1] = tested on: Rheumatoid factor (RF) IgM autoantibody; experiment: RA study biomarker: rheumatoid factor IgM autoantibody; conditions: for Rheumatoid factor (RF) IgM autoantibody levels: by Week 12 (92% placebo)
Procedure: Biomarkers were evaluated in serum or plasma samples at baseline and weeks 1, 4, and 12 in patients with available samples (cohort 1: n=438; cohort 2: n=86). The biomarkers evaluated in this assessment were chemokine [C-C motif] ligand 4 (CCL4), IL-6, and TNF-like cytokine 1A (TL1A). Total IgM, IgG, rheumatoid factor IgM autoantibody (RF), CCL4, TL1A, IL-6, and anti-CCP autoantibody (ACPA IgG) levels were analyzed with immunoassays. CD19^+ B cells and CD3^+ T cells were measured by flow cytometry. The proportion of patients achieving an ACR50 response at week 12 and the change in DAS28 score by week 12 were assessed relative to seropositivity (RF and/or ACPA positive at baseline) or baseline levels of RF in both cohorts. To select which biomarkers to evaluate in this trial, BTK-dependent myeloid biomarkers were identified using peripheral blood CD14^+ monocytes stimulated with immune-complexes in the presence or absence of a BTK inhibitor. In brief, the expression levels of genes in human monocytes were assayed under conditions of no stimulation; with human serum albumin immune complex stimulation; with stimulation and a low concentration of a BTK inhibitor with similar characteristics to fenebrutinib; or with stimulation and a high concentration of the BTK inhibitor. […] Genes annotated with cytokine activity were selected. The color bar represents normalized gene expression.

[2] = tested on: Plasmablast signature (IgJ, Mzb1, Txndc5); experiment: SLE study biomarker: plasmablast signature (RNA from blood)
Procedure: The following biomarkers were explored according to the biomarker objectives provided above in the Study Objectives. In Table 13, biomarkers are measured at baseline and subsequent timepoints during and after treatment. One set of biomarkers evaluated is the plasmablast signature. Plasmablasts are rapidly dividing, short-lived antibody secreting cells. While they represent a small proportion of B cells in the blood, they are responsible for a majority of antibody transcripts found in whole blood mRNA. The plasmablast signature comprises the biomarkers IgJ, Mzbl, and Txndc5. The gene expression of IgJ, Mzbl, and Txndc5 may be measured, for example, a polypeptide expression by evaluating the level of mRNA for said gene in a patient's blood relative to a reference level.

[3] = tested on: patients with moderate to severe active rheumatoid arthritis; experiment: Phase II RA study, Cohort 2 (inadequate response or intolerance to TNF therapy): clinical efficacy; conditions: Cohort 2, 200 mg BID
Text: A Two-Cohort Randomized Phase II, Double-Blind, Parallel Group Study in Patients with Active Rheumatoid Arthritis Evaluating the Efficacy and Safety of Fenebrutinib Compared with Placebo and Adalimumab in Patients with an Inadequate Response to Previous Methotrexate Therapy (Cohort 1) and Compared with Placebo in Patients with an Inadequate Response or Intolerance to Previous TNF Therapy (Cohort 2)
The study was a multicenter, Phase II, randomized, double-blind, placebo-controlled, active comparator (Cohort 1 only), parallel-group, dose-ranging study to evaluate the efficacy and safety of fenebrutinib in patients with moderate to severe active RA and an inadequate response to previous MTX therapy (Cohort 1) or MTX and TNF therapy who may have also had exposure to no more than one non-TNF inhibitor biologic (Cohort 2). Moderate to severe active RA was defined by ≥6 tender/painful joints on motion (68 joint count) and ≥6 swollen joints (66 joint count) at both screening and Day 1 (randomization), as well as a high sensitivity C-reactive protein (hsCRP)≥0. 400 mg/dL for Cohort 1 a hsCRP≥0.650 mg/dL for Cohort 2 at screening.
The study enrolled 578 patients. In Cohort 1, 480 MTX-IR patients were randomized to placebo (110 patients), ADA (111 patients), or one of three doses of fenebrutinib: 50 mg QD (40 patients), 150 mg QD (109 patients), or 200 mg BID (110 patients). In Cohort 2, 98 TNF-IR patients were randomized to placebo or 200 mg BID fenebrutinib. […]
ACR Assessments. The ACR's definition for calculating improvement in RA (ACR20) is calculated as a 20% improvement in tender and swollen joint counts and a 20% improvement in 3 of the 5 remaining ACR-core set measures: patient and physician global assessments, pain, disability, and an acute-phase reactant. Similarly, ACR50 and ACR70 are calculated with the respective percent improvements. […]

In the case of `C[C@H]1CN(C2COC2)CCN1c1ccc(Nc2cc(-c3ccnc(N4CCn5c(cc6c5CC(C)(C)C6)C4=O)c3CO)cn(C)c2=O)nc1` [fenebrutinib, (S)-2-(3′-(hydroxymethyl)-1-methyl-5-((5-(2-methyl-4-(oxetan-3-yl)piperazin-1-yl)pyridin-2-yl)amino)-6-oxo-1,6-dihydro-[3,4′-bipyridin]-2′-yl)-7,7-dimethyl-2,3,4,6,7,8-hexahydro-1H-cyclopenta[4,5]pyrrolo[1,2-a]pyrazin-1-one], the “Rheumatoid factor (RF) IgM autoantibody levels” value ([1]; 150 mg QD arm) is reported as 66%, the “Rheumatoid factor (RF) IgM autoantibody levels” value ([1]; 200 mg BID arm) is reported as 64% and the “RF IgM median reduction relative to placebo” value ([1]; cohort 1, 200 mg twice daily, by week 12) is reported as −29%. The “Plasmablast signature, Median Change from Baseline at Week 48” value ([2]; 150 mg QD) was −54.3%*, the “Plasmablast signature, Median Change from Baseline at Week 48” value ([2]; 200 mg BID) was −51.7%* and the “DAS 28-3 (CRP) Adjusted Mean” value ([3]; Week 12) was −1.96. For the same compound, the “ACR50 Weighted Difference vs Placebo” value ([3]; Week 12 Day 84) was 13.85 and the “DAS 28-3 (CRP) Difference (d)” value ([3]; versus placebo, Week 12) was −0.76.
